From ChEMBL document CHEMBL4619775, “2-Arylbenzo[d]oxazole Phosphinate Esters as Second-Generation Modulators of Utrophin for the Treatment of Duchenne Muscular Dystrophy” (J Med Chem, 2020) come the findings set out here.

Each structure is given as a SMILES string. In brackets after ≈: the same amount, converted by molar mass. Activity calls are given as the source filed them.

Series [1] is filed under the species Mus musculus. The series is described as follows: Upregulation of utrophin expression in dystrophin-deficient mouse myoblasts after 72 hrs by Western blot analysis. Type of series: functional. On the technique in general: In western blotting, separated proteins are transferred to a membrane and probed.
In series [2] the target is 5-hydroxytryptamine receptor 2B (Homo sapiens, UniProt P41595). Kind of series: Antagonist activity at human Gq-coupled 5HT2B receptor expressed in HEK293 cells assessed as inhibition of serotonin-induced calcium mobilization by calcium-sensitive dye based FLIPR assay. It counts as functional, cell-based. Background: Calcium assays in cells follow changes in intracellular calcium, usually with a dye or a luminescent sensor.
Chain of 5-hydroxytryptamine receptor 2B (P41595 whole entry): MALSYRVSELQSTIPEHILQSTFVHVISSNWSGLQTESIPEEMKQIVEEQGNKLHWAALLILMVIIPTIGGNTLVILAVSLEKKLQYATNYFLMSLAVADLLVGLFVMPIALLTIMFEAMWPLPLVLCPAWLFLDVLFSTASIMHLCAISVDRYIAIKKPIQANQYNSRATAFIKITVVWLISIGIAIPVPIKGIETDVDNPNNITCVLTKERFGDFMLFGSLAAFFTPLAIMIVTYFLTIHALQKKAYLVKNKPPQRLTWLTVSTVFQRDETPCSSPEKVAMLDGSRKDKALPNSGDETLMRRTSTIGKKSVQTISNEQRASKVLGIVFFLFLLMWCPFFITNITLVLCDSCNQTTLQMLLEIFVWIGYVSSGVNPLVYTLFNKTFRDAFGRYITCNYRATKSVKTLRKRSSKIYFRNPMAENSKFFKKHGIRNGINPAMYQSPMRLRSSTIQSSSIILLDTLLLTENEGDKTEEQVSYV

Series [3] is described as follows: Plasma protein binding in mouse.
Series [4] in a line: Plasma protein binding in human.
Series [5] in a line: Stability in human hepatocytes assessed as half life after 60 mins.
Series [6] in a line: Volume of distribution in mdx mouse at 1 mg/kg, iv. As to conditions: in vivo.
In series [7] the test system is Mus musculus. Kind of series: Protection against DMD in mdx C57BL/10 mouse assessed as force drop in extensor digitorum longus muscle at 30 mg/kg, po qd for 5 weeks measured post-last dose (reference value: 44.9%). It counts as functional.
Series [8] in a line: Drug metabolism in mouse hepatocytes assessed as compound racemization after 60 mins. The conditions noted are these: 1 h.
Series [9] can be described thus: Drug metabolism in human hepatocytes assessed as compound racemization after 60 mins. The conditions noted are these: 1 h.
The conditions of series [10]: mouse, in vivo, iv, 1 mg/kg.
For series [11] the following is noted: mouse, in vivo, po, 5 mg/kg, 24 h.
For series [12] the following is noted: mouse, in vivo, po, 5 mg/kg, 168 h.
The conditions of series [13]: mouse, in vivo, iv, 1 mg/kg. This is another data set of the same source.
For series [14] the following is noted: mouse, in vivo, po, 5 mg/kg, 24 h. The source holds these as a separate data set.
The conditions of series [15]: mouse, in vivo, po, 5 mg/kg, 168 h. The source holds these as a separate data set.
The conditions of series [16]: mouse, in vivo, po, 5 mg/kg, 168 h. This is another data set of the same source.
For series [17] the following is noted: mouse, in vivo, po, 5 mg/kg, 24 h. The source holds these as a separate data set.
The nature of series [18]: Solubility of compound by turbidimetric assay.
Series [19] is described as follows: Intrinsic clearance in mouse liver microsomes. For orientation: Liver microsomes are a subcellular fraction often used to study metabolism.
Series [20] in a line: Microsomal stability in mouse liver microsomes assessed as half life.
A short description of series [21]: Intrinsic clearance in human liver microsomes.
Series [22] is described as follows: Microsomal stability in human liver microsomes assessed as half life.
Series [23] in a line: Drug level in rat treated with methyl ethyl(2-(3-(trifluoromethyl)phenyl)benzo[d]oxazol-5-yl)phosphinate assessed as compound formation. It counts as ADME. As to conditions: in vivo.
Series [24] is described as follows: Intrinsic clearance in mouse hepatocytes assessed per 10^6 cells.
The nature of series [25]: Stability in mouse hepatocytes assessed as half life.
Series [26] in a line: Aqueous kinetic solubility of the compound. As to conditions: buffer.
For series [27], the system named is Mus musculus. The series is described as follows: Protection against stretch-induced damage in mdx C57BL/10 mouse assessed as improvement in muscle resistance at 30 mg/kg, po qd for 5 weeks. It counts as functional.
Series [28] is described as follows: Apparent permeability from apical to basolateral side in human Caco2. The conditions noted are these: Caco-2.
A short description of series [29]: Apparent permeability from basolateral to apical side in human Caco2. As to conditions: Caco-2.
Series [30] is described as follows: Intrinsic clearance in mouse hepatocytes after 60 mins. As to conditions: 1 h.
Series [31] is described as follows: Intrinsic clearance in human hepatocytes after 60 mins. The conditions noted are these: 1 h.
Series [32] can be described thus: Stability in mouse hepatocytes assessed as half life after 60 mins.
The species named for series [33] is Mus musculus. The series is described as follows: Upregulation of utrophin expression in dystrophin-deficient mouse myoblasts at 10 uM after 72 hrs by Western blot analysis. It counts as functional.
A short description of series [34]: Half life in mdx mouse at 5 mg/kg, po after 1 day. As to conditions: in vivo, t1/2.
A short description of series [35]: Drug metabolism in mouse hepatocytes assessed as interconversion to opposite enantiomeric form after 60 mins. As to conditions: 1 h.
Series [36] in a line: Drug metabolism in human hepatocytes assessed as interconversion to opposite enantiomeric form after 60 mins. The conditions noted are these: 1 h.
A short description of series [37]: in vivo. The conditions noted are these: mdx, mouse, iv, 1 mg/kg.
The nature of series [38]: in vivo. As to conditions: mdx, mouse, po, 5 mg/kg, F.

The term EC50 denotes the concentration that produces a half-maximal response. As a reminder, the half-life is the time needed for the level to fall by half in the phase considered. As usually defined, the Vd is the apparent volume that relates the amount in the body to the concentration in plasma or blood. High values mean extensive tissue distribution, low ones confinement near the circulation. A word on the Cmax: it is the peak of the concentration-time curve. Usually AUC stands for concentration integrated over time. A lower AUC goes with low exposure. In general, kinetic solubility refers to solubility judged after dilution from a stock solution rather than from solid. A word on the fraction unbound: it is free concentration divided by total concentration. Broadly, the microsomal CLint is the capacity of the preparation to metabolise the compound, expressed as a volume cleared per time. For orientation: hepatocyte CLint means the capacity of the preparation to metabolise the compound, expressed as a volume cleared per time. In general, Papp A→B refers to how fast a substance crosses the layer from the apical side. One may read the Papp B→A as how fast a substance crosses the layer from the basolateral side. By bioavailability is commonly meant the share of a dose that reaches the circulation, judged against a reference dose that is usually intravenous. Low values mean poor availability, high ones good availability.

With `CCP(=O)(OC)c1ccc2oc(-c3ccc(F)cc3)nc2c1` (racemic) [listing 1 of 2 here], in the series listed under Mus musculus [1], the Activity entry was “Dose-dependent effect”.

For the compound `CCP(=O)(OC)c1ccc2oc(-c3ccc(F)cc3)nc2c1` (single isomer, unassigned; (-)), the EC50 in [2] amounted to 50 µM. The PPB in [3] was determined as 77%; in series [4], 85%. Also, in series [5], the half-life at 1 h was more than 7.67 h. This compound came in with a Vd in series [6] of 1.58 L/kg. In the series on Mus musculus [7], the Activity amounted to 44.4%. For the same compound, the Drug metabolism result in series [8] and in series [9] was “Metabolite_Notdetected” in each case. Moreover, the figures for the highest concentration (Cmax) in [10], in [11] and in series [12] were 477 ng/mL, 352 ng/mL and 299 ng/mL, respectively. Further, the exposure (AUC) turned out to be 226 ng·h/mL in series [13], 444 ng·h/mL in series [14] and 513 ng·h/mL in series [15]. The F in [16] came to 45.4%; in series [17], 39.4%.

Regarding `CCOP(=O)(CC)c1ccc2oc(-c3ccc(F)cc3)nc2c1` (configuration not stated), the solubility (kinetic) in [18] was more than 100 µM. Besides, the fraction unbound was 0.16 in series [3] and 0.08 in series [4]. Besides, the microsomal CLint in [19] (liver microsomes) amounted to 39.1 µL/min/mg; in series [21] (liver microsomes), 2.41 µL/min/mg. Also, the results for the half-life in [20] (liver microsomes) and in series [22] (liver microsomes) were 0.6 h and 9.58 h, respectively.

`CCP(=O)(O)c1ccc2oc(-c3cccc(C(F)(F)F)c3)nc2c1` registered an unbound share (fraction unbound) in [4] of 0.01. In addition, the Drug uptake entry in series [23] was “Active”. This compound had a hepatocyte CLint in series [24] of less than 2.89 µL/min/1e6 cells. In addition, the half-life in series [25] was 4 h. For the same compound, the solubility (kinetic) in series [26] came to 337 µM (≈ 120 µg/mL).

In series [18], `CC(C)C(=O)Nc1ccc2oc(-c3ccc4ccccc4c3)nc2c1` had a solubility (kinetic) of 1 to 3 µM (≈ 0.33 to 0.991 µg/mL).

Turning to `CCP(=O)(OC)c1ccc2oc(-c3ccc(F)cc3)nc2c1` (single isomer, unassigned; (+)), the EC50 in series [2] worked out at 9.3 µM. The PPB in [3] is recorded as 80%. The Activity with Mus musculus [7] is reported as 29.4%; in the series on Mus musculus [27], 35%. In addition, the Cmax in [11] came out at 542 ng/mL; in series [12], 736 ng/mL. Also, the exposure (AUC) was 510 ng·h/mL in [13], 1570 ng·h/mL in series [14] and 1620 ng·h/mL in [15]. In addition, the results for the F in series [16] and in series [17] were 63.7% and 61.6%, respectively.

In the case of `COP(=O)(c1ccc2nc(-c3ccc(F)cc3)oc2c1)C(C)C` (configuration not stated), the kinetic solubility in [18] was more than 100 µM. The fraction unbound in series [3] is 0.17; in series [4], 0.04. In addition, the half-life in [20] (liver microsomes) was 0.45 h; in series [22] (liver microsomes) it was more than 17.1 h.

`CCP(=O)(OC1CC1)c1ccc2oc(-c3cccc(C(F)(F)F)c3)nc2c1` (configuration not stated) displayed an intrinsic clearance (hepatocyte CLint) in [24] of 8.65 µL/min/1e6 cells. In addition, in [25], the half-life turned out to be 1.33 h. For the same compound, the Papp A→B in [28] stood at 10.6 ×10⁻⁶ cm/s. In series [29], the apparent permeability from basolateral to apical (Papp B→A) came to 5.75 ×10⁻⁶ cm/s.

For `CCP(=O)(OC)c1ccc2oc(-c3cccc(C(F)(F)F)c3)nc2c1` (racemic), the Activity result in the series listed under Mus musculus [1] is “Dose-dependent effect”.

In [24], `CCP(=O)(OC1CCC1)c1ccc2oc(-c3cccc(C(F)(F)F)c3)nc2c1` (configuration not stated) showed an intrinsic metabolic clearance (hepatocyte CLint) of 32.8 µL/min/1e6 cells. Also, in series [25], the half-life amounted to 0.35 h. For the same compound, the Papp A→B in series [28] worked out at 6.38 ×10⁻⁶ cm/s. The Papp B→A in [29] was found to be 3.98 ×10⁻⁶ cm/s.

For `CC(=O)Nc1ccc2oc(-c3ccc4ccccc4c3)nc2c1`, the solubility (kinetic) in series [18] is 3 to 10 µM (≈ 0.907 to 3.02 µg/mL).

Compound `CCP(=O)(OC1CC1)c1ccc2nc(-c3cccc(C(F)(F)F)c3)oc2c1` (configuration not stated) registered a fraction unbound in series [3] of 0.01. Also, in series [24], the hepatocyte CLint came out at 8.92 µL/min/1e6 cells. Also, the half-life in series [25] stood at 1.3 h. Moreover, the kinetic solubility in series [26] was 652 µM (≈ 258 µg/mL).

The compound `CCS(=O)(=O)c1ccc2oc(-c3ccc4ccccc4c3)nc2c1` [EZUTROMID] gave a kinetic solubility in series [18] of 3 to 10 µM (≈ 1.01 to 3.37 µg/mL). Also, the fraction unbound in series [3] was less than 0.01. Also, the intrinsic clearance (microsomal CLint) was determined as 21 µL/min/mg in series [19] (microsomes) and 14.4 µL/min/mg in series [21] (microsomes). Also, the half-life in [20] (microsomes) came to 1.1 h; in series [22] (microsomes), 1.6 h. Also, the figures for the CLH in series [30] and in series [31] were 54 µL/min and 31 µL/min, respectively. The half-life at 1 h came to 0.433 h in series [32] and 0.75 h in [5]. Besides, the Drug metabolism result in series [8] and in series [9] was “Metabolite_Notdetected” in each case.

As to `CCP(=O)(OC)c1ccc2nc(-c3cnc4ccccc4c3)oc2c1` (configuration not stated), the solubility (kinetic) in series [18] is more than 100 µM. Besides, the results for the free fraction (fraction unbound) in series [3] and in [4] were 0.23 and 0.1, respectively. The half-life in series [20] (liver microsomes) was more than 73.3 h.

For `CCP(=O)(OC)c1ccc2nc(-c3ccc(F)cc3)oc2c1` (configuration not stated), the result in the series filed under Mus musculus [33] was inactive.

Compound `CCP(=O)(OC)c1ccc2oc(-c3ccc(F)cc3)nc2c1` (racemic) [listing 2 of 2 here] gave a kinetic solubility in series [18] of more than 100 µM. Moreover, the PPB in [3] was 75%. In series [4] (PPB), this compound showed a fraction unbound of 0.12. Moreover, the half-life stood at 1.43 h in series [20] (microsomes) and 6.38 h in series [22] (microsomes). In addition, in [6] (mdx, Vd), the Vd turned out to be 1.46 L/kg. Besides, the results for the Activity with Mus musculus [7] and in the series on Mus musculus [27] were 31.8% and 29%, respectively. This compound also had a half-life at 24 h in series [34] of 2.25 h. Moreover, the Drug metabolism in [35] and in series [36] was less than 1% each time. Further, the highest concentration (Cmax) in series [11] came out at 734 ng/mL; in series [12], 566 ng/mL; in “in vivo [37]” it was 562 ng/mL. The AUC in series [13] worked out at 431 ng·h/mL; in series [14], 1660 ng·h/mL; in [15], 1160 ng·h/mL. This compound also registered a F in series [17] of 77.2%. Also, the bioavailability at 168 h in “in vivo [38]” was 53.7%.

Take `O=S1(=O)CCCN1c1ccc2oc(-c3ccc4ccccc4c3)nc2c1`: the solubility (kinetic) in series [18] was in the range of 3 to 10 µM (≈ 1.09 to 3.64 µg/mL).
